US20230138729A1, “Coumarin Derivatives of Sugar Analogs and Uses Thereof” (Rubedo Life Sciences, Inc., priority 2021, published 2023)

Tests used:
[1] = biological target: T1, Recombinant human FUCA1 (rhFUCA1) (Homo sapiens, UniProt P04066); assay: Enzymatic hydrolysis by recombinant human FUCA1 (fluorescence reaction velocity); assay type: biochemical; conditions: compound 500 uM; for Average reaction velocity relative to MU-Fuc (%): pH 4.4, 37° C., relative to positive control MU-Fuc; for rhFUCA1 substrate: pH 4.4 McIlvaine Buffer, 37° C.
T1 sequence (P04066 32-466): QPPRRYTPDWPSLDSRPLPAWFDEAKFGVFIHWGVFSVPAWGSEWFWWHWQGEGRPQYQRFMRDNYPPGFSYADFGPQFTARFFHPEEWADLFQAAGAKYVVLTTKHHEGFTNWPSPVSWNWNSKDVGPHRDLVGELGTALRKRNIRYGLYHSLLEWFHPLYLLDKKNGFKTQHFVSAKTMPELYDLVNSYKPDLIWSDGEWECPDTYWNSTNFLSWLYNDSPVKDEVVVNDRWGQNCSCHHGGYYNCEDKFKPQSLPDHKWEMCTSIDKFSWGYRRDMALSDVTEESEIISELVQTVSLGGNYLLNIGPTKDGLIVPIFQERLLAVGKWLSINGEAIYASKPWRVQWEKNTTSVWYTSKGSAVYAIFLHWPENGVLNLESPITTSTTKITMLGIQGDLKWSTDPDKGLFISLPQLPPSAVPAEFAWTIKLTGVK
Experimental: (§1) Compounds were added to wells of a black-walled clear bottom 96 well plate at a concentration of […]. 4-methylumbelliferyl-alpha-L-fucopyranoside (referred to as MU-Fuc, CAS 54322-38-2) or 4-methylumbelliferyl-beta-D-galactopyranoside (referred to as MU-Gal, CAS 6160-78-7) were included as positive control compounds. Recombinant human FUCA1 (1-25 nM) or GLB1 (2-50 nM) in reaction buffer comprised of pH 4.4 McIlvaine Buffer, 2 mM dithiothreitol and 0.1% (v/v) Tween-20 was added to the wells. Enzyme-free controls were included to check for spontaneous compound hydrolysis. The plate was shaken and incubated at 37° C. in the plate reader. Every 5 minutes, fluorescence was read at the excitation wavelength of 330 nm and the emission wavelength of 450 nm for up to 3 hours. Linear regressions were calculated during the linear phase of the reaction to calculate the reaction velocity at each concentration of compound. Reaction velocities for compounds at 500 uM were compared as a percentage of the appropriate positive control compound.
Hydrolysis by the recombinant human FUCA1 enzyme (rhFUCA1) of modified fucose sugars conjugated to 4-methylumbelliferone or 7-amino-4-methylcoumarin was assessed by quantifying the generation of fluorescence over time as described in Example 10 and is compiled in Table 1, supra. Reaction rates of each compound were compared to the hydrolysis of the unmodified fucose conjugate MU-Fuc (14). Compound 43 was hydrolyzed by rhFUCA1 at a velocity about 35% of that of MU-Fuc. The reaction rate of 19 with rhFUCA1 was about 30% of that of MU-Fuc.

[2] = biological target: T2, Recombinant human GLB1 (rhGLB1) (Homo sapiens, UniProt P16278); assay: Enzymatic hydrolysis by recombinant human GLB1 (fluorescence reaction velocity); assay type: biochemical; conditions: compound 500 uM; for Average percent of MU-Gal reaction velocity: pH 4.4, 37° C., relative to positive control MU-Gal; for rhGLB1 substrate: pH 4.4 McIlvaine Buffer, 37° C.
T2 sequence (P16278 29-677): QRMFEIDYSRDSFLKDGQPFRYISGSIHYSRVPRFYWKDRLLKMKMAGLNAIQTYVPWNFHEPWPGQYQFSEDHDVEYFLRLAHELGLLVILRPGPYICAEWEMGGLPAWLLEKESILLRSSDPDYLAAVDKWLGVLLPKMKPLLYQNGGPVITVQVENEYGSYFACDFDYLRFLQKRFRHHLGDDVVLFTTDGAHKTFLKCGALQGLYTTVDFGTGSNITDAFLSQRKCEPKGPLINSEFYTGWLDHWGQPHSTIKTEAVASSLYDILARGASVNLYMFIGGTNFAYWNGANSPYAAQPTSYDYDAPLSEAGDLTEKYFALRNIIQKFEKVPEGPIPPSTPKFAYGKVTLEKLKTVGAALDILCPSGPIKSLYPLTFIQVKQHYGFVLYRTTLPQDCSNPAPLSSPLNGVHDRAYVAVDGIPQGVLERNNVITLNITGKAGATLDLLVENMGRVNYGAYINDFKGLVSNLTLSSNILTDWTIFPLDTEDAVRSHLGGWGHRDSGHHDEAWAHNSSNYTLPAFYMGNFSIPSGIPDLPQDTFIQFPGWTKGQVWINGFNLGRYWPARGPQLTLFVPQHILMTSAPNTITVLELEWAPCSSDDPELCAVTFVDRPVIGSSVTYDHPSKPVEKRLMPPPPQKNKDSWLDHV
Experimental: as §1
Hydrolysis by the recombinant human GLB1 (rhGLB1) enzyme of modified galactose sugars conjugated to 4-methylumbelliferone was assessed by quantifying the generation of fluorescence over time as described in Example 10 and is compiled in Table 1, supra. Reaction rates of each compound were compared to the hydrolysis rate of the unmodified galactose conjugate MU-Gal. Of the modified galactose compounds tested, compound 42 was rapidly hydrolyzed, at a rate about 8% of that of MU-Gal. Compounds 33 and 6 were hydrolyzed with reaction velocities about 4% or 3% of that of MU-Gal, respectively. Compounds 35, 31, and 27 were hydrolyzed by rhGLB1, but slowly compared to MU-Gal with rates less than 2% of that of MU-Gal.

[3] = system: T47D breast cancer cells (sgNTC control); assay: Cellular hydrolysis of compounds in live T47D control cells (4-MU fluorescence); assay type: cell-based; conditions: compound 30 uM, naked sugar and acetylated version; for Average percent of product relative to 26 at 72 hours in T47D control cells: modified galactose conjugates
Experimental: (§2) T47D breast cancer cells were cultured in RPMI 1640 medium containing 10% heat inactivated fetal bovine serum. Cell lines were infected with lentiviral construct(s) containing S. pyogenes Cas9 and sgRNA(s) targeting the gene(s) of interest (sgNTC, non-targeting control; sgFUCA1_1, FUCA1 knockout). Infected cells were selected by antibiotic treatment. To assess the cellular hydrolysis of compounds, cells were seeded at 3-20,000 cells per well into 96-well plates and incubated at 37° C. with 5% CO2. The next day, compounds (30 uM) were added to the cells. Wells containing only compounds in media were included as background fluorescence controls. 4-methylumbelliferyl-alpha-L-fucopyranoside (referred to as MU-Fuc, CAS 54322-38-2) or 4-methylumbelliferyl-2,3,4,6-tetra-O-acetyl-beta-D-galactopyranoside (CAS 6160-79-8) were included as positive controls. A 4-methylumbelliferone (referred to as 4-MU, CAS 90-33-5) standard ladder ranging from 39 to 5000 pmoles was added to each cell line. Fluorescence was read at the excitation wavelength of 330 nm and the emission wavelength of 450 nm on the plate reader every 24 hours for 72 hours. The plate was returned to the 37° C. 5% CO2 incubator between readings. A linear regression was performed to determine the slope of the line relating fluorescence to pmoles of 4-MU standard at each time point. The average cell-free background fluorescence for each compound at each time point was subtracted from all compound sample fluorescence measurements. Compound sample fluorescence was converted to pmoles of 4-MU by dividing by the slope of the 4-MU linear regression. The amount of 4-MU present at 72 hours for each compound in each cell line was compared as a percentage of the appropriate positive control compound.
The hydrolysis of modified galactose sugars conjugated to 4-methylumbelliferone in live cells was assessed by incubating the compounds in media with T47D breast cancer cells for 3 days and quantifying the generation of fluorescence over time as described in Example 11 and is compiled in Table 3, supra. […]

[4] = system: T47D FUCA1 knockout cells; assay: Cellular hydrolysis in T47D FUCA1 knockout cells versus T47D control cells; assay type: cell-based; conditions: compound 30 uM
Experimental: as §2, with “4-methylumbelliferyl-alpha-L-fucopyranoside (referred to as MU-Fuc, CAS 54322-38-2) or 4-methylumbelliferyl-2,3,4,6-tetra-O-acetyl-beta-D-galactopyranoside (CAS 6160-79-8) were included as positive controls. A 4-methylumbelliferone (referred to as 4-MU, CAS 90-33-5) standard ladder ranging from 39 to 5000 pmoles was added to each cell line.” left out, “The plate was returned to the 37° C.” left out, “The amount of 4-MU present at 72 hours for each compound in each cell line was compared as a percentage of the appropriate positive control compound.” left out

Molecule | rhFUCA1 substrate [1] | Average percent of MU-Gal reaction velocity [2] [%] | rhGLB1 substrate [2] | other results
Cc1cc(=O)oc2cc(NC(=O)OCc3ccc(O[C@@H]4O[C@@H](C)[C@@H](O)[C@@H](O)[C@@H]4O)cc3)ccc12 [Compound 50, [4-[(2S,3S,4R,5S,6S)-3,4,5-trihydroxy-6-methyl-tetrahydropyran-2-yl]oxyphenyl]methyl N-(4-methyl-2-oxo-chromen-7-yl)carbamate] | yes |  |  | Average reaction velocity relative to MU-Fuc (%) [1]: 16.7%
Cc1cc(=O)oc2cc(O[C@@H]3O[C@H](CO)[C@H](O)[C@H](O)[C@H]3O)ccc12 [MU-Gal, 4-methylumbelliferyl-beta-D-galactopyranoside, reference compound] |  | 100 | yes | 
Cc1cc(=O)oc2cc(NC(=O)OCc3ccc(NC(=O)O[C@@H]4O[C@@H](C)[C@@H](O)[C@@H](O)[C@@H]4O)cc3)ccc12 [Compound 59, [4-[[(2S,3S,4R,5S,6S)-3,4,5-trihydroxy-6-methyl-tetrahydropyran-2-yl]oxycarbonylamino]phenyl]methyl N-(4-methyl-2-oxo-chromen-7-yl)carbamate] | yes |  |  | 
Cc1cc(=O)oc2cc(O[C@H]3C[C@@H](O)[C@@H](O)[C@@H](CO)O3)ccc12 [Compound 24] |  | 0 | not hydrolyzed and no | 
Cc1cc(=O)oc2cc(O[C@@H]3O[C@H](CO)[C@H](O)C[C@H]3O)ccc12 [Compound 35] |  |  | yes | 
(2R,3S,4S,5R,6S)-2-(acetoxymethyl)-5-fluoro-6-((4-methyl-2-oxo-2H-chromen-7-yl)oxy)tetrahydro-2H-pyran-3,4-diyl diol [Compound 20] |  | 0 | not hydrolyzed and no | Average percent of product relative to 26 at 72 hours in T47D control cells [3]: 0%
CC(=O)O[C@H]1[C@H](OC(C)=O)[C@H](Oc2ccc3c(C)cc(=O)oc3c2)O[C@@H](C)[C@H]1OC(C)=O [Compound 44] |  |  |  | Average percent of product formed by each compound at 72 hours in T47D FUCA1 knockout cells relative to product formed in T47D control cells [4]: 8%
Cc1cc(=O)oc2cc(O[C@@H]3O[C@H](CO)C[C@H](O)[C@H]3O)ccc12 [Compound 33] |  |  | yes | 
COc1ccc(C2O[C@H]3[C@H](O)[C@H](Oc4ccc5c(C)cc(=O)oc5c4)O[C@@H](C)[C@H]3O2)cc1 (stereo partly drawn) [Compound 43, 7-(((3aR,4S,6S,7S,7aS)-7-hydroxy-2-(4-methoxyphenyl)-4-methyltetrahydro-3aH-[1,3]dioxolo[4,5-c]pyran-6-yl)oxy)-4-methyl-2H-chromen-2-one] | yes |  |  | 
(2S,3R,4R,5S,6S)-5-fluoro-2-methyl-6((4-methyl-2-oxo-2H-chromen-7-yl)oxy)tetrahydro-2H-pyran-3,4-diyl diacetate [Compound 27] |  |  | yes | Average percent of product relative to 26 at 72 hours in T47D control cells [3]: 13%
Cc1cc(=O)oc2cc(O[C@H]3C[C@H](O)[C@H](O)[C@H](C)O3)ccc12 [Compound 19, (2S,3R,4S,6S)-2-methyl-6-((4-methyl-2-oxo-2H-chromen-7-yl)oxy)tetrahydro-2H-pyran-3,4-diyl diol] | yes |  |  | 
Cc1cc(=O)oc2cc(O[C@@H]3O[C@@H](C)[C@@H](O)[C@@H](O)[C@@H]3O)ccc12 [Compound 14, 4-methyl-7-(((2S,3S,4R,5S,6S)-3,4,5-trihydroxy-6-methyltetrahydro-2H-pyran-2-yl)oxy)-2H-chromen-2-one, reference compound] | yes | 7.6 | yes | Average reaction velocity relative to MU-Fuc (%) [1]: 100%; Average percent of product relative to MU-Fuc (14) at 72 hours by T47D control cells ([3]; modified fucose conjugates): 100%
Cc1cc(=O)oc2cc(O[C@@H]3O[C@H](CO)[C@H](O)[C@H](F)[C@H]3O)ccc12 [Compound 31] |  |  | yes | 
